Assay [1] concerns nucleoprotein factor NF-κB (p65)-DNA binding activity. As to the kind of experiment: NF-κB (p65)-DNA binding activity (EMSA). Format: cell-based. From the text:
The in-vitro experiment of the inhibitory effect against the NF-κB(p65)-DNA binding activity was applied with the chemiluminescent EMSA kit of Pierce Biotechnology Company of the U.S., the experimental method was strictly operated according to the description of the kit and the specific procedure were as follows:
(1) Preparation of EMSA gel
The cells treated by the drugs were extracted by the nucleoprotein extract solution (provided by Beyotime Biotechnology of Institute) to obtain the nucleoprotein extracts, and 10 μg/pipe of the nucleoprotein extracts were respectively used for sample reaction and electrophoresis detection and analysis shown in the following table.
(2) Pre-electrophoresis: the gel was fixed in an electrophoresis tank, which was filled with a 0.5×TBE electrophoresis buffer solution, and electrophoresed under 10V/cm for 90 min. The probe binding reaction was as follows:
The components were added in sequence into the EP pipe according to the above table, uniformly mixed and stood at room temperature for 15 min to eliminate possible non-specific binding of probe and protein. 1 μl of biotin-labeled probe NF-κB was respectively added and stood at room temperature for 20 min.
(4) Film transfer: the process of transferring the nucleoprotein factors and the binding probe on the EMSA gel to the nylon film was electrically transferred under 380 mA in ice bath for 40 min.
(5) Ultraviolet cross-linking: the nylon film was placed under a 254 nm ultraviolet lamp and irradiated for 15 min.
(6) Detection of the biotin-labeled probe by chemiluminescence: the cross-linked nylon film was blocked with the blocking solution, a treated film was subjected to X-ray exposure, developing, and fixation according to the requirements of the kit, and the results were analyzed.
(In general: In EMSA bound probe runs differently from free probe, usually more slowly.)

The test system of assay [2] is human lung cancer cells A549 xenograft. As to the kind of experiment: In-vivo growth of A549 xenografts in nude mice. Also noted: species or system BALB/c nude mice. To be noted: Mus musculus, ip, vs DMSO solvent control, read-out: Curative effect (inhibition rate %) of tumor weight; for inhibition in vivo at 60 mg/kg: 60 mg/kg intraperitoneal once a day; for inhibition in vivo at 90 mg/kg: 90 mg/kg intraperitoneal once a day. The procedure: RPMI1640 and DMEM culture solutions: Hyclone Company; inactivated fetal bovine serum: Hyclone Company, preserved at −20° C.; trypsin: Amersco Company; and 0.4% trypan blue: Sigma Company;
(3) Observation of growth of tumors in nude mice: the activities (including food intake, traits of urine and stool, mental state and the like) of the nude mice and the tumor growth time and growth situation of the transplanted tumors were observed every day, the body weight and the size of the tumors were measured once every 2-3 days. The long diameter a and the short diameter b (mm) of each tumor were measured by a vernier caliper to calculate the volume, wherein the volume V=π1/2·ab^2 (mm^3);
(4) sacrifice of animals: the mice were anesthetized and photoed after treatment experiments; the nude mice were sacrificed by breaking neck, the tumor tissues were stripped under sterile conditions and the weight of the tumors was weighed; and the effects of the drugs on pathology and toxicity of the various organs and tissues were detected.

Assay [3] has as its system human pancreatic cancer cells PANC-1. Description: MTT growth inhibition, PANC-1 cells. Format: cell-based. Particulars: 72 h after treatment, read-out: Drug concentration (IC50) at which 50% cancer cells survived.
Assay [4] concerns human lung cancer cells A549. As to the kind of experiment: MTT growth inhibition, A549 cells. Particulars: 72 h after treatment, read-out: Drug concentration (IC50) at which 50% cancer cells survived. In kind it is cell-based.
Assay [5] concerns human breast cancer cells MCF-7. Description: MTT growth inhibition, MCF-7 cells. Format: cell-based. Particulars: MCF7, 72 h after treatment, read-out: Drug concentration (IC50) at which 50% cancer cells survived.
Setting [6] is: A549 cells, EMSA, nuclear protein extracts, 48 h, read-out: Effective concentration for 50% inhibition of binding of nucleoprotein factor NF-kB (p65) and DNA.
[7] abbreviates: MCF7 cells, EMSA, nuclear protein extracts, 48 h, read-out: Effective concentration for 50% inhibition of binding of nucleoprotein factor NF-kB (p65) and DNA.
Where [8] appears, read: MDA-MB231 cells, EMSA, nuclear protein extracts, 48 h, read-out: Effective concentration for 50% inhibition of binding of nucleoprotein factor NF-kB (p65) and DNA.
The mark [9] stands for this setting: SMMC7721 cells, EMSA, nuclear protein extracts, 48 h, read-out: Effective concentration for 50% inhibition of binding of nucleoprotein factor NF-kB (p65) and DNA.
Setting [10] is: human liver cancer cells, Lewis lung cancer cells and other cancer cell lines and tumor tissues, read-out: Effective concentration (IC50) for inhibition of NF-κB-DNA binding activity.
Where [11] appears, read: Hela cells, EMSA, nuclear protein extracts, 48 h, read-out: Effective concentration for 50% inhibition of binding of nucleoprotein factor NF-kB (p65) and DNA.
Setting [12] is: PANC-1 cells, EMSA, nuclear protein extracts, 48 h, read-out: Effective concentration for 50% inhibition of binding of nucleoprotein factor NF-kB (p65) and DNA.

Like-named read-outs stand apart in the source and are kept apart here.

With `CCNC(=O)CCC(NC(=O)c1cc2cc(F)ccc2oc1=O)C(=O)OCC` (stereo in doubt) [Compound Ie, (R)-2-(6-F-2-oxo-2H-benzopyran-3-carboxamido)-5-ethylamino-5-oxo-pentanoic acid ethyl ester], the IC50 is below 120 µM in assay [1] (setting [6]); below 100 µM in assay [1] (setting [7]); below 110 µM in assay [1] (setting [8]); below 121 µM in assay [1] (setting [9]); below 100 µM in assay [1] (setting [10]); 72 µM in assay [3]. Also, the IC50 was determined as 141 µM in assay [4] and 115 µM in assay [5]. Also, the inhibition in vivo at 60 mg/kg in assay [2] was 55.5%. The inhibition in vivo at 90 mg/kg in assay [2] was 61.5%.

On to `CCNC(=O)CCC(NC(=O)c1cc2cc([N+](=O)[O-])ccc2oc1=O)C(=O)OCC` (stereo in doubt) [Compound If, (R)-2-(6-nitro-2-oxo-2H-benzopyran-3-carboxamido)-5-ethylamino-5-oxo-pentanoic acid ethyl ester], for which the IC50 is below 100 µM in assay [1] (setting [6]); below 100 µM in assay [1] (setting [7]); below 100 µM in assay [1] (setting [8]); below 100 µM in assay [1] (setting [9]); below 100 µM in assay [1] (setting [10]); 77 µM in assay [3]. Moreover, the values for the IC50 in assay [4] and in assay [5] were 122 µM and 112 µM, respectively. Moreover, in assay [2], the inhibition in vivo at 60 mg/kg amounted to 58.6%. The inhibition in vivo at 90 mg/kg in assay [2] was 64.6%.

As for `CCNC(=O)CC[C@H](N)C(=O)OC` [Compound IIa, theanine methyl ester], the inhibition in vivo at 60 mg/kg in assay [2] was found to be 29.6%. Moreover, the inhibition in vivo at 90 mg/kg in assay [2] was 31.7%. The figures for the IC50 in assay [3], in assay [4] and in assay [5] were 280 µM, 650 ± 30 µM and 450 µM, respectively.

For the compound `CCNC(=O)CC[C@H](N)C(=O)OCC` [Compound IIb, theanine ethyl ester], the inhibition in vivo at 60 mg/kg in assay [2] is 33.3%. Further, in assay [2], the inhibition in vivo at 90 mg/kg is 38.6%. For the same compound, the IC50 in assay [3] was determined as 400 µM; in assay [4], 500 ± 30 µM; in assay [5], 300 µM.

On to `CCNC(=O)CCC(NC(=O)c1cc2ccccc2oc1=O)C(=O)OC` (stereo not drawn) [Compound Ia, methyl 5-ethylamino-5-oxo-2-(2-oxo-2H-benzopyran-3-carboxamido)pentanoate], for which the IC50 was below 135 µM in assay [1] (Lewis lung cancer cells, EMSA, nuclear protein extracts, 48 h, read-out: Effective concentration for 50% inhibition of binding of nucleoprotein factor NF-kB (p65) and DNA); below 125 µM in assay [1] (setting [9]); below 135 µM in assay [1] (setting [10]); 67 ± 30 µM in assay [3]; 300 ± 60 µM in assay [4]; 220 µM in assay [5]. The inhibition in vivo at 60 mg/kg in assay [2] came to 48.6%. Moreover, the inhibition in vivo at 90 mg/kg in assay [2] is 51.6%.

As for `CCNC(=O)CCC(NC(=O)c1cc2ccccc2oc1=O)C(=O)OCC` (stereo not drawn) [Compound Ib, ethyl 5-ethylamino-5-oxo-2-(2-oxo-2H-benzopyran-3-carboxamido)pentanoate], the IC50 is below 135 µM in assay [1] (setting [6]); below 120 µM in assay [1] (setting [9]); below 130 µM in assay [1] (setting [10]); 65 µM in assay [3]; 125 ± 50 µM in assay [4]; 103 µM in assay [5]. Besides, in assay [2], the inhibition in vivo at 60 mg/kg is 53.6%. The inhibition in vivo at 90 mg/kg in assay [2] was found to be 60.6%.

With `CCNC(=O)CC[C@@H](NC(=O)c1cc2cc(Cl)ccc2oc1=O)C(=O)OCC` [Compound Ic, (R)-2-(6-CI-2-oxo-2H-benzopyran-3-carboxamido)-5-ethylamino-5-oxo-pentanoic acid ethyl ester], the IC50 was below 125 µM in assay [1] (setting [6]); below 125 µM in assay [1] (setting [7]); below 125 µM in assay [1] (setting [8]); below 125 µM in assay [1] (setting [9]); below 125 µM in assay [1] (setting [10]); 54 µM in assay [3]. Further, the IC50 was found to be 128 ± 60 µM in assay [4] and 95 µM in assay [5]. The inhibition in vivo at 60 mg/kg in assay [2] was 61.6%. Moreover, in assay [2], the inhibition in vivo at 90 mg/kg is 67.6%.

For the compound `CCNC(=O)CC[C@@H](NC(=O)c1cc2cc(Br)ccc2oc1=O)C(=O)OCC` [Compound Id, (R)-2-(6-Br-2-oxo-2H-benzopyran-3-carboxamido)-5-ethylamino-5-oxo-pentanoic acid ethyl ester], the IC50 in assay [1] (setting [6]) is below 110 µM; in assay [1] (setting [7]) it was below 100 µM; in assay [1] (setting [8]) it was below 100 µM; in assay [1] (setting [9]), below 80 µM; in assay [1] (setting [10]), below 120 µM; in assay [3] it was 55 µM. Besides, the IC50 is 139 ± 50 µM in assay [4] and 102 µM in assay [5]. Further, the inhibition in vivo at 60 mg/kg in assay [2] is 63.6%. Moreover, the inhibition in vivo at 90 mg/kg in assay [2] was found to be 69.6%.

`CCNC(=O)CC[C@@H](NC(=O)c1cc2cc(Cl)cc(Cl)c2oc1=O)C(=O)OCC` [Compound Ig, (R)-2-(6,8-dichloro-2-oxo-2H-benzopyran-3-carboxamido)-5-ethylamino-5-oxo-pentanoic ethyl ester]: the IC50 in assay [1] (setting [6]), in assay [1] (setting [11]), in assay [1] (setting [7]), in assay [1] (setting [8]), in assay [1] (setting [12]) and in assay [1] (setting [9]) was below 70 µM in each case. The IC50 is below 125 µM in assay [1] (setting [10]), 71 µM in assay [3], 45 µM in assay [4] and 75 µM in assay [5]. The inhibition in vivo at 60 mg/kg in assay [2] is 56.6%. The inhibition in vivo at 90 mg/kg in assay [2] came out at 66.6%.

As to `CCNC(=O)CC[C@@H](NC(=O)c1cc2cc(Br)cc(Br)c2oc1=O)C(=O)OCC` [Compound Ih, (R)-2-(6,8-dibromo-2-oxo-2H-benzopyran-3-carboxamido)-5-ethylamino-5-oxo-pentanoic ethyl ester], the IC50 in assay [1] (setting [6]), in assay [1] (setting [11]), in assay [1] (setting [7]), in assay [1] (setting [8]), in assay [1] (setting [12]) and in assay [1] (setting [9]) was below 70 µM throughout. Also, the IC50 was below 125 µM in assay [1] (setting [10]), 78 µM in assay [3], 56 µM in assay [4] and 91 µM in assay [5]. Further, in assay [2], the inhibition in vivo at 60 mg/kg was determined as 53.8%. Besides, the inhibition in vivo at 90 mg/kg in assay [2] is 63.8%.

(Values after patent US9518038B2, “Condensation product of theanine derivative and carboxylic acid coumarin derivative, its intermediate, preparation method and use thereof” (SHANDONG YINGDONG YINGHAO BIOTECHNOLOGY, INC., priority 2012, dated 2016).)
